Assays:
patients with MDD = experiment: Five Phase II studies of vilazodone, eight weeks of treatment; format: in vivo, human; details: active comparator in three Phase II studies
From the text: As part of the vilazodone development program, five Phase II studies have been conducted, all in patients with MDD. These studies randomized 2,098 patients for eight weeks of treatment, 1196 of whom received vilazodone.

GluR1 = details: cited from earlier work
CYP2C19 = CYP2C19 (Homo sapiens, UniProt P33261); details: cited from earlier work
c-fos [1] = details: unstressed rats; cited from earlier work
MAPK1 = details: cultured rat astrocytes; cited from earlier work
CYP1A2 = target: T1, CYP1A2 (Homo sapiens, UniProt P05177); details: cited from earlier work
T1 sequence (P05177 1-516): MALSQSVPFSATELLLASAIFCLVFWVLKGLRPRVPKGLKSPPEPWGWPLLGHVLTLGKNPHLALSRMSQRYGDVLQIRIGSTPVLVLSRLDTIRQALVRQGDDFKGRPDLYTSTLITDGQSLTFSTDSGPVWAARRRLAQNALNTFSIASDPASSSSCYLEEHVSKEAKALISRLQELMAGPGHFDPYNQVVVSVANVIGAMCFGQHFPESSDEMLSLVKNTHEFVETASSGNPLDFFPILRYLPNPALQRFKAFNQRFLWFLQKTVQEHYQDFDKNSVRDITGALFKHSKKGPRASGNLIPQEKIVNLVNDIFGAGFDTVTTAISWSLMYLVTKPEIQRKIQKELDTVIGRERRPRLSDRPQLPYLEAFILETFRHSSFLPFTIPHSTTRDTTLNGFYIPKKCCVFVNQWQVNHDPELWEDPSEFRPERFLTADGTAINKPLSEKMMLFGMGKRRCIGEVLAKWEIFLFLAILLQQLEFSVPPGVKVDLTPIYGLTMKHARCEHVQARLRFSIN

CYP3A4 = CYP3A4 (Homo sapiens, UniProt P08684); details: cited from earlier work
GluR1, GluR2, and GluR3 = details: chronic (30 days) administration; mouse nucleus accumbens and dorsal striatum; cited from earlier work
BCLXL expression = details: rat depression model, chronic administration; cited from earlier work
CYP2C9 = CYP2C9 (Homo sapiens, UniProt P11712); details: cited from earlier work
PLC-β1 knockout mice = details: cited from earlier work
26S proteasome = details: cited from earlier work
c-fos [2] = details: rat; cited from earlier work
mice = details: intracerebroventricular injection; cited from earlier work
laminin, CAM-L1, pCREB = details: chronic administration, unstressed rats; cited from earlier work

Sequence of CYP2C9 (P11712 whole entry): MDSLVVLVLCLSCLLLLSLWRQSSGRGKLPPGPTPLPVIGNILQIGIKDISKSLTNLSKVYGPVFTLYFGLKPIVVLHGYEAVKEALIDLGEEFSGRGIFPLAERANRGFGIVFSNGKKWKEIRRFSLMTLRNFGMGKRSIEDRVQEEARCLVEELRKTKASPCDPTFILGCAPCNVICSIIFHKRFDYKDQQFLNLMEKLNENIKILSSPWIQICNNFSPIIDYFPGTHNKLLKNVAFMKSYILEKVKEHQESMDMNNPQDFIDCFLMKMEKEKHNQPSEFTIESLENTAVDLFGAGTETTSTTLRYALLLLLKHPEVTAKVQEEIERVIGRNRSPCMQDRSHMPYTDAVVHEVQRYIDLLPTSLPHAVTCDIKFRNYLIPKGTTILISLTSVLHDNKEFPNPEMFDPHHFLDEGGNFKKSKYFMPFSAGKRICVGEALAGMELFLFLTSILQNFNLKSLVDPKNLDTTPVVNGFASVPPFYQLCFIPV
Sequence of CYP3A4 (P08684 whole entry): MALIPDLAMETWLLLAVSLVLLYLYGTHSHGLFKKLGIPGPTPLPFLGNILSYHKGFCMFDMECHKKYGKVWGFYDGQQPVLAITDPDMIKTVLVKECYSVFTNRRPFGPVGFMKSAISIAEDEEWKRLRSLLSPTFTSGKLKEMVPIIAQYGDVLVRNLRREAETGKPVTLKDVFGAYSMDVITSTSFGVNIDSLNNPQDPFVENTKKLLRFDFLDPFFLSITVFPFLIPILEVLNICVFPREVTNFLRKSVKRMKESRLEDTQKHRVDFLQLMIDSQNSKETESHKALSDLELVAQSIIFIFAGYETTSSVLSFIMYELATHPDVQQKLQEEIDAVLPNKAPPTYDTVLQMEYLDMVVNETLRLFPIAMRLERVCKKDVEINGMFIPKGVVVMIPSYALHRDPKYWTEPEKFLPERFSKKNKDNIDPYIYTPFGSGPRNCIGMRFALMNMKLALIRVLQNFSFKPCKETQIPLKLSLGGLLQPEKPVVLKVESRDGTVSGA
Sequence of CYP2C19 (P33261 whole entry): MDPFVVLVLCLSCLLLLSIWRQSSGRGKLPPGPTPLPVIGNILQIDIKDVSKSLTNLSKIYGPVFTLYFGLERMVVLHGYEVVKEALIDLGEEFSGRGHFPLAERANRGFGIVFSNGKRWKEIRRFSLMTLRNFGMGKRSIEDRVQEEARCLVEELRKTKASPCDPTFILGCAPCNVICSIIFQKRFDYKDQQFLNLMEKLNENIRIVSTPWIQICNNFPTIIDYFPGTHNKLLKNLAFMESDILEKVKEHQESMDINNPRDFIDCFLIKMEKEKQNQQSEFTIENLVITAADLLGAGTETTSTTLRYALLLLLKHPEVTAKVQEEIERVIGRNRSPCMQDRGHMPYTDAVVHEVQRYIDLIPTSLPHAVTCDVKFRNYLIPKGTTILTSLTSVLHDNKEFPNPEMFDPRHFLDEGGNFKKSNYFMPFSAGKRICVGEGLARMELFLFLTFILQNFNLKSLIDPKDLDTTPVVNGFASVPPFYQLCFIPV

CNCCC(Oc1ccc(C(F)(F)F)cc1)c1ccccc1 (stereo not shown) [fluoxetine]
Hamilton Depression Scale (HAM-D) total score versus placebo (patients with MDD): did not show a statistically significant improvement | phosphorylation of GluR1 (GluR1): increase | inhibition of CYP2C19 (CYP2C19): inhibit | c-fos staining in the brain (c-fos [1]): decrease | MAPK1 activation (MAPK1): increased | inhibition of CYP1A2 (CYP1A2): inhibit | inhibition of CYP3A4 (CYP3A4): inhibit

CNCCCC12CCC(c3ccccc31)c1ccccc12 [maprotiline]
GluR1, GluR2, and GluR3 (GluR1, GluR2, and GluR3): increased

N[C@@H]1C[C@H]1c1ccccc1 (racemic) [tranylcypromine]
BCLXL expression in the CA1 and DG subfields (BCLXL expression): increased

CCOc1ccccc1OC(c1ccccc1)C1CNCCO1 (stereo not shown) [reboxetine]
BCLXL expression in the CA1 and DG subfields (BCLXL expression): increased | c-fos staining in the brain (c-fos [1]): decrease

CN[C@H]1CC[C@@H](c2ccc(Cl)c(Cl)c2)c2ccccc21 [Sertraline]
inhibition of CYP2C9 (CYP2C9): partially inhibit

O=C(CCCN1CCC(O)(c2ccc(Cl)cc2)CC1)c1ccc(F)cc1 [haloperidol]
schizophrenic-like behaviors (PLC-β1 knockout mice): rescued

CCCCC[C@H](O)/C=C/[C@H]1C(=O)C=C[C@@H]1C/C=C\CCCC(=O)O [prostaglandin J2]
function of the 26S proteasome (26S proteasome): inhibited

CN(C)CCCN1c2ccccc2CCc2ccc(Cl)cc21 [clomipramine]
level of c-fos in the PAG brain region (c-fos [2]): decreased

neuropeptide Y [NPY]
antidepressant-like effect (mice): dose dependent antidepressant-like effect

CNCCCN1c2ccccc2CCc2ccccc21 [desipramine]
level of c-fos in the PAG brain region (c-fos [2]): decreased | laminin and CAM-L1 in hippocampus and frontal cortex (laminin, CAM-L1, pCREB): increased | pCREB (laminin, CAM-L1, pCREB): increased pCREB in the frontal cortex only
